Experimental data reported in US9522886B2, “Pyridine derivatives” (Hoffmann-La Roche Inc., priority 2012, dated 2016).
Where a name gives a salt, the structure may show the parent alone.

Experiments:
human CB2 receptors = human CB2 receptors (Homo sapiens (Human), UniProt P34972); assay: cAMP assay, CHO cells expressing human CB2 receptors; type: cell-based; conditions: functional cAMP assay, CHO cells expressing human CB2; read-out: human CB2 EC50
human CB1 receptors = human CB1 receptors (Homo sapiens (Human), UniProt P21554); assay: cAMP assay, CHO cells expressing human CB1 receptors; type: cell-based; conditions: functional cAMP assay, CHO cells expressing human CB1; read-out: human CB1 EC50
Chain of human CB1 receptors (P21554 whole entry): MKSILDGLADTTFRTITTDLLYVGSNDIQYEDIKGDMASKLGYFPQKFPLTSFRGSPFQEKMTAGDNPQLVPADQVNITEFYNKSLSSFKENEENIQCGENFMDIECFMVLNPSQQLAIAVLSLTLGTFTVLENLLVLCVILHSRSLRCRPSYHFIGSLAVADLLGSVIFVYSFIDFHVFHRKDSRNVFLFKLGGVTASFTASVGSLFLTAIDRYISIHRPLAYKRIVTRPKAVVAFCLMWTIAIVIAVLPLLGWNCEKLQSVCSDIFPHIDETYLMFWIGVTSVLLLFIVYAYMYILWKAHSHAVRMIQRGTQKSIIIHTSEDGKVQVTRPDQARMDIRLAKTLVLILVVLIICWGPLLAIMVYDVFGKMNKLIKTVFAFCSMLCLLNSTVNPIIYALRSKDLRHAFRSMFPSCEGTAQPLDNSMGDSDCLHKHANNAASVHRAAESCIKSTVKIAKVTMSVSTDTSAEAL

Chain of human CB2 receptors (P34972 whole entry): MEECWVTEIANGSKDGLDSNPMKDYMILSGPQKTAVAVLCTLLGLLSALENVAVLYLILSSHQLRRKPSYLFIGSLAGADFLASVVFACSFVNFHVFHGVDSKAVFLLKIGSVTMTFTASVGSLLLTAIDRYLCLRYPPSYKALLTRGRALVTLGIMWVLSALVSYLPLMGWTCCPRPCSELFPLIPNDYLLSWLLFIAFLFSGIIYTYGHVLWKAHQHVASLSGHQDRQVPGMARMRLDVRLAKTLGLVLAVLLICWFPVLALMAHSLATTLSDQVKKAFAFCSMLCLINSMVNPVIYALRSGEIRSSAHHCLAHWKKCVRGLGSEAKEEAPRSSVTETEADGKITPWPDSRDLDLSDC

| SMILES | EC50 (human CB2 receptors) [nM] | EC50 (human CB1 receptors) [µM] |
| --- | --- | --- |
| NC(=O)CC1(NC(=O)c2ccc(N3CC(F)(F)C3)c(OCC3CC3)n2)CNC1 [Example 65, N-[3-(2-Amino-2-oxoethyl)azetidin-3-yl]-6-(cyclopropylmethoxy)-5-(3,3-difluoroazetidin-1-yl)pyridine-2-carboxamide] | 443 | > 10 |
| NC(=O)[C@H]1CCCC[C@H]1NC(=O)c1ccc(N2CC(F)(F)C2)c(OCC2CC2)n1 [Example 21, (−)-cis-6-Cyclopropylmethoxy-5-(3,3-difluoro-azetidin-1-yl)-pyridine-2-carboxylic acid (2-carbamoyl-cyclohexyl)-amide] | 407 | > 10 |
| CC(C)CSc1nc(C(=O)NC2(CC(N)=O)CS(=O)(=O)C2)ccc1C1CC1 [Example 75, N-[3-(2-Amino-2-oxoethyl)-1,1-dioxothietan-3-yl]-5-cyclopropyl-6-(2-methylpropylsulfanyl)pyridine-2-carboxamide] | 15.8 | > 10 |
| CC(C)(CC(N)=O)NC(=O)c1ccc(N2CC(F)(F)C2)c(OCC2CC2)n1 [Example 48, 6-Cyclopropylmethoxy-5-(3,3-difluoro-azetidin-1-yl)-pyridine-2-carboxylic acid (2-carbamoyl-1,1-dimethyl-ethyl)-amide] | 9.2 | > 10 |
| NC(=O)CC1(NC(=O)c2ccc(C3CC3)c(OCC(F)(F)C(F)(F)F)n2)COC1 [Example 49, 5-Cyclopropyl-6-(2,2,3,3,3-pentafluoro-propoxy)-pyridine-2-carboxylic acid (3-carbamoylmethyl-oxetan-3-yl)-amide] | 12.7 | > 10 |
| CCCCCC(CC(=O)NC)NC(=O)c1ccc(N2CC(F)(F)C2)c(OCC2CC2)n1 (centres unmarked) [Example 7, 6-Cyclopropylmethoxy-5-(3,3-difluoro-azetidin-1-yl)-pyridine-2-carboxylic acid (1-methylcarbamoylmethyl-hexyl)-amide] | 55.6 | > 10 |
| NC(=O)CC1(NC(=O)c2ccc(C3CC3)c(OCC3CC3)n2)CCOC1 (centres unmarked) [Example 88, N-[3-(2-Amino-2-oxoethyl)oxolan-3-yl]-5-cyclopropyl-6-(cyclopropylmethoxy)pyridine-2-carboxamide] | 2 | > 10 |
| NC(=O)CC1(NC(=O)c2ccc(C3CC3)c(OCC3CC3)n2)CSC1 [Example 96, N-[3-(2-Amino-2-oxoethyl)thietan-3-yl]-5-cyclopropyl-6-(cyclopropylmethoxy)pyridine-2-carboxamide] | 1.8 | > 10 |
| NC(=O)CC1(NC(=O)c2ccc(C3CC3)c(OCC3CCCO3)n2)CS(=O)(=O)C1 (centres unmarked) [Example 80, N-[3-(2-Amino-2-oxoethyl)-1,1-dioxothietan-3-yl]-5-cyclopropyl-6-(oxolan-2-ylmethoxy)pyridine-2-carboxamide] | 2.4 | > 10 |
| NC(=O)CC1(NC(=O)c2ccc(C3CC3)c(Cc3ccc(F)cc3)n2)CCNCC1 [Example 66, N-[4-(2-Amino-2-oxoethyl)piperidin-4-yl]-5-cyclopropyl-6-[(4-fluorophenyl)methyl]pyridine-2-carboxamide; hydrochloride] | 1.3 | > 10 |
| NC(=O)CC(NC(=O)c1ccc(N2CC(F)(F)C2)c(OCC2CC2)n1)C1CCOC1 (centres unmarked) [Example 67, N-[3-Amino-3-oxo-1-(oxolan-3-yl)propyl]-6-(cyclopropylmethoxy)-5-(3,3-difluoroazetidin-1-yl)pyridine-2-carboxamide] | 8.3 | > 10 |
| O=C(O)CC1(NC(=O)c2ccc(N3CC(F)(F)C3)c(OCC3CC3)n2)CCOCC1 [Example 57, (4-{[6-Cyclopropylmethoxy-5-(3,3-difluoro-azetidin-1-yl)-pyridine-2-carbonyl]-amino}-tetrahydro-pyran-4-yl)-acetic acid] | 3 | > 10 |
| CNC(=O)CC1(NC(=O)c2ccc(C3CC3)c(OCC3CC3)n2)COC1 [Example 38, 5-Cyclopropyl-6-cyclopropylmethoxy-pyridine-2-carboxylic acid (3-methylcarbamoylmethyl-oxetan-3-yl)-amide] | 101 | > 10 |
| COC(=O)CC1(NC(=O)c2ccc(N3CC(F)(F)C3)c(OCC3CC3)n2)CNC(=O)C1 (centres unmarked) [Example 50, (3-{[6-Cyclopropylmethoxy-5-(3,3-difluoro-azetidin-1-yl)-pyridine-2-carbonyl]-amino}-5-oxo-pyrrolidin-3-yl)-acetic acid methyl ester] | 423 | > 10 |
| NC(=O)CC1(NC(=O)c2ccc(OC(F)(F)F)c(OCC3CC3)n2)COC1 [Example 46, 6-Cyclopropylmethoxy-5-trifluoromethoxy-pyridine-2-carboxylic acid (3-carbamoylmethyl-oxetan-3-yl)-amide] | 31.4 | > 10 |
| O=C(O)CC1(NC(=O)c2ccc(N3CC(F)(F)C3)c(OCC3CC3)n2)CS(=O)(=O)C1 [Example 56, (3-{[6-Cyclopropylmethoxy-5-(3,3-difluoro-azetidin-1-yl)-pyridine-2-carbonyl]-amino}-1,1-dioxo-1λ6-thietan-3-yl)-acetic acid] | 3 | > 10 |
| CC(=O)N1CC(CC(N)=O)(NC(=O)c2ccc(N3CC(F)(F)C3)c(OCC3CC3)n2)C1 [Example 73, N-[1-Acetyl-3-(2-amino-2-oxoethyl)azetidin-3-yl]-6-(cyclopropylmethoxy)-5-(3,3-difluoroazetidin-1-yl)pyridine-2-carboxamide] | 120 | > 10 |
| NC(=O)CC1(NC(=O)c2cccc(-c3ccc(F)c(Cl)c3)n2)CS(=O)(=O)C1 [Example 79, N-[3-(2-Amino-2-oxoethyl)-1,1-dioxothietan-3-yl]-6-(3-chloro-4-fluorophenyl)pyridine-2-carboxamide] | 74.7 | > 10 |
| NC(=O)CC1(NC(=O)c2ccc(C3(O)CCC3)c(OCC3CC3)n2)CSC1 [Example 95, N-[3-(2-Amino-2-oxoethyl)thietan-3-yl]-6-(cyclopropylmethoxy)-5-(1-hydroxycyclobutyl)pyridine-2-carboxamide] | 1.1 | > 10 |
